Columns and labels:
[1] = system: phosphorylation of endogenous acetyl-CoA carboxylase (ACC) in L6-GLUT4myc myoblasts; assay: Test Example 3: cell-based ELISA of ACC (Ser79) phosphorylation for AMPK activation in L6-GLUT4myc myoblasts; conditions: for EC (150% of control): concentration causing 150% relative to vehicle control (100%), 3 hours, phospho-ACC; for Emax: maximum response within varying concentrations, vehicle control = 100%
Method: Cell-based assay for AMPK activation potency of compounds was performed with L6-GLUT4myc myoblasts (J. Biol. Chem. 278:17953-62, 2003) in a 96-well or 384-well plate by detecting the phosphorylation of endogenous acetyl-CoA carboxylase (ACC) using cell-based ELISA method. The cells were seeded in a 96-well plate at a density of 2×10^4 cells per well or in a 384-well plate at a density of 3.5×10^3 cells per well in minimum essential media (α-MEM) supplemented with 10% fetal bovine serum, 100 U/mL penicillin, 100 μg/mL streptomycin, 2 μg/mL blasticidin S hydrochloride and 0.5 mg/mL G418 disulfate, and maintained in a humidified atmosphere of 95% air and 5% CO2 at 37° C. for 24 hours. Following the overnight culture with an assay buffer consisting of 0.1% bovine serum albumin (BSA), 100 U/mL penicillin and 100 μg/mL streptomycin, cells were treated with varying concentrations of compounds or vehicle (dimethyl sulfoxide at a final concentration of 0.33%) in the presence of 0.1% BSA or 4% BSA for 3 hours at room temperature. After fixing cells with ice-cold 4% formaldehyde in Tris-buffered saline (TBS) for 30 min, the fixed cells were rinsed with TBS containing 0.1% or 0.01% Triton X-100 (TBS-T) and quenched with 0.6% hydrogen peroxide in TBS-T, and blocked with a blocking reagent (Blocking One P manufactured by Nacalai Tesque). Then, anti-phospho-ACC (Ser79) antibody as the primary antibody (manufactured by Cell Signaling Technology) diluted with TBS-T containing 5% Blocking One P was added to each well and the plate was incubated overnight at 4° C. After rinsing each well with TBS-T, horseradish peroxidase (HRP)-conjugated anti-rabbit IgG as the secondary antibody diluted with TBS-T containing 5% Blocking One P was added to each well and the plate was incubated for 1 hour in 96-well plate or for 5 hours in 384-well plate at room temperature. Each well of the plate was rinsed with TBS-T and added a chemiluminescent reagent (ImmunoStar® LD manufactured by Wako Pure Chemical Industries) for detection of HRP conjugates. Ten minutes later, the luminescence intensity was measured using luminometer (ViewLux or ARVO manufactured by PerkinElmer). The luminescence in the presence of compound was calculated as the rate of change relative to vehicle control, which is in the absence of compound.

Human AMPK α2β2γ1 = target: T1, Human AMPK α2β2γ1 (Homo sapiens, UniProt O43741+P54646); assay: Test Example 2: activation of phosphorylated human AMPK α2β2γ1 (mobility-shift kinase assay, FL-Peptide 7); type: biochemical; conditions: for EC150: compound concentration showing 150% relative to the control (100%), human AMPK α2β2γ1 phosphorylated with CaMKK2; for Emax: maximum rate of increase in activity within the measurement range, control = 100%, read-out: Emax
T1 construct: The full length cDNAs of human AMPK β2 (NM_005399.3) and human AMPK α2 (NM_006252.3); The full length cDNAs of human AMPK β2 (NM_005399.3); the full length cDNA of human AMPK γ1 (NM_002733.3) had been inserted into pET28b(+); 6×His (N); made in house; host or cells: Escherichia coli BL21 CodonPlus (DE3)-RIL
In short: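 His-tagged α2β2γ1 expressed in E. coli was pre-phosphorylated by GST-CaMKKβ (25 °C, 1–1.5 h), then exposed to compound for 10 min (1% DMSO). Reaction: pH 7.0 HEPES, ATP and 1.5 μM FL-Peptide 7 (final), 2 h at 25 °C. Mobility-shift conversion gave % activity increase versus compound-free control.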

[2] = BA test (oral absorption); type: in vivo; conditions: rat, plasma; rats; calculated from AUCs of oral and intravenous administration groups
Method: • (1) Animals: mice or rats • (2) Animal husbandry: Mice and rats had free access to solid food and sterilized bottled tap water. • (3) Setting of dose and group compositions: orally or intravenously administered at a predetermined dose Group compositions were as shown below. (Dose depends on the compound)
Oral: 1 to 30 mg/kg (n=2 to 3)
Intravenous: 0.5 to 10 mg/kg (n=2 to 3) • (4) Preparation of administration formulation: for oral administration, in a solution or a suspension state; for intravenous administration, in a solubilized state • (5) Dosing procedure: In oral administration study, the test substance was forcibly administered to the stomach by using a gavage tube. In intravenous administration study, the test substance was administered via tail vein using a syringe with a needle. • (6) Evaluation items: Blood was collected at each time point, and plasma concentration of the drug was determined by LC/MS/MS. • (7) Data analysis: Regarding the transition of the plasma concentration, area under the plasma concentration-time curve (AUC) was calculated by means of WinNonlin® program, respectively. Bioavailability (BA) was calculated from AUCs of the oral administration group and intravenous administration group.

T1 sequence (P54646 whole entry): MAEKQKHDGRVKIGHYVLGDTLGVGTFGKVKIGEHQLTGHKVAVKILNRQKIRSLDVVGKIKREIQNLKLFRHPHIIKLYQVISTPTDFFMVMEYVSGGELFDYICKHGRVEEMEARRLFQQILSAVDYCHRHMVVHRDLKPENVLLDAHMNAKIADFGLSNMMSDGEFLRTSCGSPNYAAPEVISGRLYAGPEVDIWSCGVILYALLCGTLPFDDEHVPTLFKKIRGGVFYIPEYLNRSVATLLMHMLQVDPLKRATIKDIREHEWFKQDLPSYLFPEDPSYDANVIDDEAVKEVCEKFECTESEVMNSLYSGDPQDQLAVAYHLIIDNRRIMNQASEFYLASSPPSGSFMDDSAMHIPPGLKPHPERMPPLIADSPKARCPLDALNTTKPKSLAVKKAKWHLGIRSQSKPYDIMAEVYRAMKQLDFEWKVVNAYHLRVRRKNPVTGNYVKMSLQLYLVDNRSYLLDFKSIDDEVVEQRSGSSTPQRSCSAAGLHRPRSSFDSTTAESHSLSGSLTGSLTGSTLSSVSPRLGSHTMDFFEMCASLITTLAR
T1 sequence (O43741 whole entry): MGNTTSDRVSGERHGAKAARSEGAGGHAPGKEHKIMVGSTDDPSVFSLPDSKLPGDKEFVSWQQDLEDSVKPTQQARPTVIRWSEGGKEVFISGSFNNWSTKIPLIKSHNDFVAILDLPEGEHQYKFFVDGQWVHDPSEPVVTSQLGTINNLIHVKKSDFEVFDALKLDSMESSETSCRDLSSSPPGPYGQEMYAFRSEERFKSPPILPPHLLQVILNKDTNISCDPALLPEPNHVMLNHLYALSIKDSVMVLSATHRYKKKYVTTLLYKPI
T1 sequence (P54619 whole entry partner): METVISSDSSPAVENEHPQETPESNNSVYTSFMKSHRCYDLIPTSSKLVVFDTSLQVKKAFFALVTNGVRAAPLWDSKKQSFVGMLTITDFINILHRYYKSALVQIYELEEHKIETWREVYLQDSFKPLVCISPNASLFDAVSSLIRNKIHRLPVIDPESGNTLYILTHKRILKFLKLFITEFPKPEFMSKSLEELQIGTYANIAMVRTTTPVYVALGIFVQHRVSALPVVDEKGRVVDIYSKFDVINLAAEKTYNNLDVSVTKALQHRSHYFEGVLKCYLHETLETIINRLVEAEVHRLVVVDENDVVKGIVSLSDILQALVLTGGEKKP

Structure (SMILES)	EC (150% of control) [1] [µM]	Emax [1] [%]	EC150 (Human AMPK α2β2γ1) [nM]	Emax (Human AMPK α2β2γ1) [%]	bioavailability [2] [%]
CS(C)(=O)=Nc1ccc(-c2ccc(-c3nc4cc(O[C@@H]5CO[C@H](CO)C5)[nH]c4cc3Cl)cc2)cc1 [Compound I-1-02]	0.0113	968	2.2	510	
CC(=O)N1CCC(Oc2ccc(-c3ccc(-c4nc5cc(O[C@@H]6CO[C@H]7[C@@H]6OC[C@H]7O)[nH]c5cc4F)cc3)cc2)C1 (stereo partly shown) [Compound I-1-27]	0.168	473	5.8	332	19.6
CS(C)(=O)=Nc1ccc(-c2ccc(-c3nc4cc(O[C@@H]5CO[C@H](CO)C5)[nH]c4cc3F)cc2)cc1 [Compound I-1-47]	0.0039	547	0.96	542	
O[C@@H]1CO[C@H]2[C@@H]1OC[C@H]2Oc1cc2nc(-c3ccc(-c4ccc(OC5CCNC5)cc4)cc3)c(F)cc2[nH]1 (stereo partly shown) [Compound I-1-60]	0.019	495	< 0.051	486	
C[S+]([O-])c1ccc(-c2ccc(-c3nc4cc(O[C@@H]5CO[C@H]6[C@@H]5OC[C@H]6O)[nH]c4cc3F)cc2)cc1 (stereo partly shown) [Compound I-1-64]	0.021	509	1.6	375	17.8
COCCOc1ccc(-c2ccc(-c3nc4cc(O[C@@H]5CO[C@H]6[C@@H]5OC[C@H]6O)[nH]c4cc3F)cc2)cc1 [Compound I-1-66]	0.103	635	8.5	333	38.8
O=C1NCCC1Oc1ccc(-c2ccc(-c3nc4cc(O[C@@H]5CO[C@H]6[C@@H]5OC[C@H]6O)[nH]c4cc3F)cc2)cc1 (stereo partly shown) [Compound I-1-70]	0.156	512			25.5
CC(C)(O)COc1ccc(-c2ccc(-c3nc4cc(O[C@@H]5CO[C@H]6[C@@H]5OC[C@H]6O)[nH]c4cc3F)cc2)cc1 [Compound I-2-13]	0.16	650	3	652	59
O[C@@H]1CO[C@H]2[C@@H]1OC[C@H]2Oc1cc2nc(-c3ccc([C@@H]4CCCC[C@@H]4O)cc3)c(F)cc2[nH]1 [Compound I-2-18]	0.164	612	12	618	18.6
COCCNc1ccc(-c2ccc(-c3nc4cc(O[C@@H]5CO[C@H]6[C@@H]5OC[C@H]6O)[nH]c4cc3F)cc2)cc1 [Compound I-2-31]	0.134	656	6.8	478	40.5
CN1CCC(Oc2ccc(-c3ccc(-c4nc5cc(O[C@@H]6CO[C@H]7[C@@H]6OC[C@H]7O)[nH]c5cc4F)cc3)cc2)C1=O (stereo partly shown) [Compound I-2-32]	0.086	531	1.3	379	28.6
O[C@@H]1CO[C@H]2[C@@H]1OC[C@H]2Oc1cc2nc(-c3ccc(-c4ccc(O[C@@H]5CCOC5)cc4)cc3)c(F)cc2[nH]1 [Compound I-2-84]	0.079	684	4.3	514	52.1

Reference: US10478425B2, “5-phenylazaindole derivative having AMPK-activating activity” (Shionogi & Co., Ltd., priority 2016, dated 2019)
